Tests used:
[1] = Adverse effects and weight loss of mice treated in the efficacy models; format: in vivo, BALB/c nu/nu mice; details: mouse, in vivo
Description: (§1) Five-week-old female athymic BALB/c nu/nu mice were purchased from Charles River Company (Shanghai, China), and mice were randomly divided into 5-6 mice/group. Animal handling and procedures were approved and performed in accordance with the requirements of the Institutional Animal Care and Use Committee (IACUC) of Shanghai Institute of Materia Medica, Chinese Academy of Sciences. All models were inoculated subcutaneously on the side of mice. BXPC-3, HCC1806 and NCIH1688 cells were established by injecting and homogenizing 5 × 10^6 cells in Matrigel matrix. COLO205 cells were established by injecting and suspending 1 × 10^7 cells in Matrigel matrix. After the tumor volume reached about 200 mm^3, the tumor-bearing mice were randomly divided into treatment groups and a control group according to the tumor volume. Each drug was administered intraperitoneally. Mice were injected at doses of 3 or 10 mg/kg (10 mL/kg). Tumor volume was defined as length × ½ × width × width. The percentage of inhibition was calculated by the following formula: (1-average tumor volume of the treatment group/average tumor volume of the control group)×100%. Toxicity of the different treatment groups was assessed by monitoring weight loss.

[2] = test system: tumor cell lines with different expression levels of Trop-2; assay: Cell viability assay (CCK-8), comparison across the cell panel; format: cell-based
Protocol: (§2) Cell viability was determined using Cell Counting Kit 8 (CCK-8). Cells were seeded into 96-well plates at 3000-10000 cells/well. After incubation overnight, drugs were added at different concentrations. Plates were incubated in a 5% CO2, 37° C. humidified chamber for 96 hours. CCK8 reagent was added thereto and the plates were placed back to the incubator until the absorbance at 450 nm of untreated control cells was greater than 1.0. Growth inhibition was measured as the percent growth relative to untreated cells. Dose response curve was generated from the mean values of two or three tests, and IC50 values were calculated using Prism GraphPad software.
(§3) The anti-tumor efficacy of different payloads on different tumor cell lines was detected by CCK-8, and the results are shown in FIG. 5.

[3] = test system: MDA-MB-231 or CFPAC-1 cells; assay: Detection of ADC endocytosis rate by flow cytometry; format: cell-based; details: Trop-2 expressing cells, 5 µg/mL ADC, 37° C.
Protocol: To assess the endocytosis rate of ADC, MDA-MB-231 or CFPAC-1 cells (1 × 10^6) were incubated with 5 µg/mL of ADC samples in a staining medium for 30 min on ice, and washed twice, and then it was placed in a fresh complete medium. Internalization was initiated in a humidified chamber at 37° C. After the incubation, cells were washed twice with an ice-cold staining medium and then stained with goat anti-human IgG-PE. Cells were analyzed by flow cytometry to detect the level of ADC remaining on the surface.
The internalization rate of ADC may affect its inhibitory efficiency against tumor cells.

HCC1806 cells = assay: HCC1806 mouse transplanted tumor model; format: in vivo, BALB/c nu/nu mice
Description: as §1, with “After the tumor volume reached about 200 mm^3, the tumor-bearing mice were randomly divided into treatment groups and a control group according to the tumor volume. Each drug was administered intraperitoneally. Mice were injected at doses of 3 or 10 mg/kg (10 mL/kg). Tumor volume was defined as length × ½ × width × width.” left out
Mice inoculated with HCC1806 cells (n = 6 per group) were treated on days 7, 10 and 14. Tumors were measured two or three times per week. On day 20, statistical significance between treatment and control groups was assessed using a two-tailed t-test. *P <0.05, comparing hRS7-VK-PTX treatment group with hRS7-VK-SN38 treatment group, data = mean ± SD, the results are shown in FIG. 7b.

BXPC-3 cells = assay: BXPC-3 mouse transplanted tumor model; format: in vivo, BALB/c nu/nu mice
Description: as §1, with “After the tumor volume reached about 200 mm^3, the tumor-bearing mice were randomly divided into treatment groups and a control group according to the tumor volume. Each drug was administered intraperitoneally. Mice were injected at doses of 3 or 10 mg/kg (10 mL/kg). Tumor volume was defined as length × ½ × width × width.” left out
Mice inoculated with BXPC-3 cells (n = 5 per group) were treated with ADC or naked antibody on days 5, 13, and 21, and tumors were measured two or three times a week. On day 25, statistical significance between treatment and control groups was assessed using a two-tailed t-test. ***P<0.001, compared with hRS7 treatment group; *P<0.05, comparing hRS7-VK-PTX treatment group with PTX treatment group; compared with hRS7 treatment group, P<0.001, data=mean ± SD, the results are shown in FIG. 7a.

COLO205 = assay: Cell viability assay (CCK-8); format: cell-based; details: ADCs; CCK-8, 96 hours; cell printed 'COXC28', Colon; read-out: IC50 (95% Cl)
Protocol: as §2, §3

Capan-1 = assay: Cell viability assay (CCK-8); format: cell-based; details: ADCs; CCK-8, 96 hours; Cxoo-1 [sic], Pancreas; read-out: IC50 (95% Cl)
Protocol: as §2, §3

NCIH2452 = assay: Cell viability assay (CCK-8); format: cell-based; details: ADCs; CCK-8, 96 hours; cell 'HOC2401' [sic], Lung; read-out: IC50 (95% Cl)
Protocol: as §2, §3

SK-MES-1 = assay: Cell viability assay (CCK-8); format: cell-based; details: ADCs; CCK-8, 96 hours; cell 'SK-WSS-7' [sic], Lung; read-out: IC50 (95% Cl)
Protocol: as §2, §3

HCC1806 = assay: Cell viability assay (CCK-8); format: cell-based; details: ADCs; CCK-8, 96 hours; 'HOC1906' [sic], Mamary; read-out: IC50 (95% Cl)
Protocol: as §2, §3

SKBR3 = assay: Cell viability assay (CCK-8); format: cell-based; details: ADCs; CCK-8, 96 hours; 'SKERS' [sic], Mammary; read-out: IC50 (95% Cl)
Protocol: as §2, §3

NCI-H1688 = assay: Cell viability assay (CCK-8); format: cell-based; details: ADCs; CCK-8, 96 hours; cell 'HCl-11685' [sic], Lung; read-out: IC50 (95% Cl)
Protocol: as §2, §3

SCLC-21H = assay: Cell viability assay (CCK-8); format: cell-based; details: ADCs; CCK-8, 96 hours; SRM-C-21H; read-out: IC50 (95% Cl)
Protocol: as §2, §3

MDA-MB-468 = assay: Cell viability assay (CCK-8); format: cell-based; details: ADCs; CCK-8, 96 hours; SRM-M9-409, Mammary; read-out: IC50 (95% Cl)
Protocol: as §2, §3

MDA-MB-231 = assay: Cell viability assay (CCK-8); format: cell-based; details: ADCs; CCK-8, 96 hours; cell 'SRM-K9-231' [sic], Mamary; read-out: IC50 (95% Cl)
Protocol: as §2, §3

BXPC-3 = assay: Cell viability assay (CCK-8); format: cell-based; details: ADCs; CCK-8, 96 hours; cell RMCA [sic], Pancreas; read-out: IC50 (95% Cl)
Protocol: as §2, §3

hRS7-VK-PTX
adverse effects or weight loss in treated mice [1]: did not cause adverse effects or weight loss | efficacy of ADC in tumor cell lines with low expression of Trop-2 ([2]; COL0205, MDA-MB-231, SK - MES-1, Capan-1, NCIH2452): more effective than hRS7-VK-MMAE and hRS7-VK-SN38 | inhibitory effect in PTX-resistant tumor cell lines ([2]; SKBR3, CFPAC-1, MDA-MB-231 and COLO205): good inhibitory effect | internalization rate [3]: faster than hRS7-VK-MMAE and hRS7-VK-SN38 | tumor inhibitory effect compared with PTX (HCC1806 cells; HCC1806 model, 30 mg/kg (1.3 mg/kg PTX equivalent)): comparable to that of 10 mg/kg of PTX | inhibition of transplanted tumor (HCC1806 cells; HCC1806 xenograft, intraperitoneal, days 7, 10, 14, P<0.05 vs hRS7-VK-SN38 on day 20): more effective than hRS7-VK-SN38 | inhibition of transplanted tumor (BXPC-3 cells; BXPC-3 xenograft, intraperitoneal, days 5, 13, 21): more effective than hRS7-VK-SN38 | inhibition of transplanted tumor compared with PTX (BXPC-3 cells; BxPC-3 model, 3 mg/kg of hRS7-VK-PTX, P = 0.0248): more effective than 10 mg/kg of PTX | IC50 (COLO205): 4.52 nM | IC50 (Capan-1): 2.98 nM | IC50 (NCIH2452): 1.4 nM | IC50 (SK-MES-1): 10.1 nM | IC50 (HCC1806): 0.266 nM | IC50 (SKBR3): 1.74 nM | IC50 (NCI-H1688): 32.4 nM | IC50 (SCLC-21H): 2.96 nM | IC50 (MDA-MB-468): 2.68 nM | IC50 (MDA-MB-231): 1.59 nM | IC50 (BXPC-3): 0.633 nM

From US20230346969A1, “INTERMEDIATE FOR PREPARING ANTIBODY-DRUG CONJUGATE (ADC), PREPARATION METHOD THEREFOR, AND USE THEREOF” (priority 2020, published 2023)
